Source: patent publication US10232009B1, “Peptide for promoting wound healing, its composition and method of using the same” (PRO SUNFUN BIOTECH RESEARCH AND DEVELOPMENT CO., LTD., priority 2017, dated 2019)
Entries after “also recorded” stand apart in the source; their conditions may differ. Ends that are not written are not given here.

Experiments:
Format in all cases: cell-based, Human
CCD-966SK cells = assay: Transwell migration assay, CCD-966SK fibroblast cells; conditions: 50 μg/ml peptide, 24-hour culture, P<0.01
Method: (§1) Human keratinocyte HaCaT and skin fibroblast CCD-966SK cells were cultured in Dulbecco's Modified Eagle Medium (DMEM) containing 10% (v/v) FBS and 1% (v/v) antibiotics in 5% CO2 at 37° C.
(§2) HaCaT cells (5×10^4) or CCD-966SK cells (5×10^3) in 0.25 ml serum-free DMEM were seeded into the upper chamber with an 8-μm pore size membrane (Corning, USA) and 0.5 ml serum free DMEM with or without 50 μg/ml Peptide NO. 9 were loaded to the lower chamber in 24-well culture plate. After 24 hours incubation, cells were fixed and stained with 0.5% (w/v) crystal violet (Sigma) containing 20% (v/v) methanol. The number of migrated cells from 5 random fields was counted under the microscope. Results obtained were analyzed by student's t-test and graphed as mean±SD.

HaCaT keratinocyte cells = assay: MTT assay, viability of HaCaT keratinocyte cells; conditions: 50 μg/ml peptide
Method: as §1
(§3) HaCaT keratinocyte cells (3×10^3, each cell line) in 100 μl complete DMEM were seeded in 96-well plates with or without 50 μg/ml Peptide NO. 9, respectively. Ten microliters of 5 mg/ml 3-(4,5-dimethyl-2-thiazolyl)-2,5-diphenyl-2H-tetrazolium bromide solution (MTT; Sigma) was added to each well for the indicated times and incubated at 37° C. for 3 hours, after which 100 μl 10% SDS in 0.01 N HCl was added to dissolve the MTT formazan crystals. The resultant optical density was measured spectrophotometrically at dual wavelengths, 550 and 630 nm.

HaCaT cells = assay: Transwell migration assay, HaCaT keratinocyte cells; conditions: 50 μg/ml peptide, 24-hour culture, P<0.05
Method: as §1, §2

CCD966SK cells = assay: MTT assay, viability of CCD966SK cells; conditions: 50 μg/ml peptide
Method: as §1, §3

HTSTEAK [Peptide NO. 9]
CCD966SK fibroblast cell migration (CCD-966SK cells): enhanced CCD966SK fibroblast cell migration; also recorded: significant efficacy in enhancing HaCaT CCD966SK fibroblast cell migration | viability of HaCaT keratinocyte cells (HaCaT keratinocyte cells; 24-hour culture): did not significantly affect viability of HaCaT cells | viability of HaCaT keratinocyte cells (HaCaT keratinocyte cells; 48-hour culture): did not significantly affect viability of HaCaT cells | viability of HaCaT keratinocyte cells (HaCaT keratinocyte cells; 72-hour culture): did not significantly affect viability of HaCaT cells | HaCaT keratinocyte cell migration (HaCaT cells): enhanced HaCaT keratinocyte cell migration; also recorded: significant efficacy in enhancing HaCaT keratinocyte cell migration; also recorded: effect in enhancement of keratinocyte cell migration of HaCaT cells | viability of CCD966SK cells (CCD966SK cells; 24 hours): did not significantly affect viability of CCD966SK cells | viability of CCD966SK cells (CCD966SK cells; 48 hours): did not significantly affect viability of CCD966SK cells | viability of CCD966SK cells (CCD966SK cells; 72 hours): did not significantly affect viability of CCD966SK cells
